Measured values from patent publication US20100202971A1, “COMPOUND HAVING TUMOR-RESIDENT PROPERTY” (priority 2009, published 2010).

Experiments:
Format in all cases: in vivo, KSN nude mice
[1] = tested on: human esophageal squamous cell carcinoma cells TE-8; assay: Biological distribution of biotinated αSQMG in tumor of tumor-bearing nude mice (TRITC-avidin staining of tumor segments); conditions: intravenous 40, 20 and 2 mg/kg, FIG. 1
Procedure: 1×10^6 of human esophageal squamous cell carcinoma cells TE-8 were transplanted into the right femoral region of 11 male KSN nude mice (Japan SLC, Inc.), and the mice were bred to form a tumor mass of about […] volume.
Thereafter, biotinated αSQMG C18:0 (formula XI) was dissolved in physiological saline solution, and 0.1 mL of the solution per administration was intravenously administered to each group comprising three mice so that the amount of the biotinated αSQMG C18:0 could be 40 mg/kg, 20 mg/kg, and 2 mg/kg. To two reference tumor bearing mice, physiological saline was administered. […]
In order to evaluate a tumor region which emits fluorescence due to TRITC, binarization imaging was performed with use of Photoshop. Thereafter, a portion (fraction) containing tumor tissues was selected from the visual field, and the number of pixels of a TRITC positive region (black color region) and the entire region were counted and the ratio of the positive region was calculated according to the formula:
The proportion (%) of biotinated αSQAP detected region=[the area of the black color region (region where the biotinated αSQMG was detected)]/[the area of the whole of the selected fraction]×100=[the number of pixels in the TRITC positive region]/[the number of pixels in the whole fraction]×100 (%) formula (A) […]

[2] = tested on: human sophageal squamous cell carcinoma cells TE-8; assay: Pharmacokinetics 2: concentration-time course in blood plasma, organs and tumor after intravenous administration (LC/MS); conditions: 1 mg/kg intravenous
Procedure: To eight-week-old male KSN nude mice (Japan SLC, Inc.), 2×10^6 of human colon carcinoma cells (SW480) were transplanted subcutaneously, two weeks later (body weight approximately 25 g, tumor volume approximately 200 mm^3) αSQMG C18:0 or αSQAP C18:0 was dissolved in physiological saline solution and administered intraperitoneally at a dose of 10 mg/kg (0.1 mL). After the administration, the mice were slaughtered chronologically with carbon dioxide; 30 minute, 1 hour, 2 hours, 4 hours, 12 hours, and 24 hours after the administration. Tissues of blood, liver, kidney, lung and spleen, and tumor tissue were then collected. At each time when tissues were collected, five animals were used. Whole blood was collected from postcaval vein with use of an injection needle wetted with heparin sodium injection solution (10,000 unit/10 mL) to obtain blood plasma by 20 minutes of centrifugation at 6,000 g. To 90 μl of blood plasma, 5 μl of an internal standard compound (αSQMG C16:0), 5 μl of distilled water, and 4 μl of phosphoric acid were added, and denatured protein by adding 96 μl of acetonitrile. To 0.2 mL of the solution, 600 μl of 10 mM ammonium acetate solution was added, and stirred sufficiently to obtain supernatant by centrifugation at 16,000 g for 15 minutes. The supernatant was subjected to solid-phase extraction operation as described below. The solid-phase extraction was performed by washing with 1000 μl of 10 mM ammonium acetate aqueous solution and 200 μl of 10 mM ammonium acetate aqueous solution containing 10% acetonitrile, followed by elution of a test compound with 200 μl of 10 mM ammonium acetate aqueous solution containing 70% acetonitrile with use of Empore (trademark) disc cartridge (3M Company, product number 4115SD). The compound was used as a LC/MS analytical sample. Each organ was extirpated after collection of blood and immediately frozen on dry ice. The frozen sample was subjected to frost shattering, and the weight was measured. Subsequently, ½-fold (weight ratio) internal standard compound (αSQMG C16:0) and distilled water were added, and 8-fold (weight ratio) extraction solution (2.5% NP-40, 2% phosphoric acid, 2 mM Eserine aqueous solution) was further added to the sample, followed by homogenization. The homogenized solution was subjected to protein denaturation with acetonitrile and solid phase extraction in the same manner as the above-mentioned treatment of blood plasma to obtain an analytical sample. 10 μl of the analytical sample was separated with a reverse phase HPLC system equipped with Capcell Pak MG column (particle diameter; 3 μm, column size; 2.1×50 mm, Shiseido Co., Ltd.). HPLC was performed with 68% acetonitrile and a single solvent of 10 mM ammonium acetate aqueous solution at a flow rate of 0.2 mL per minute. Mass spectrum was measured in a negative mode, and the peak area ratio of the internal standard compound was calculated by integration of the peak area from chromatogram corresponding to each ion by measuring a precursor ion; m/z=583.1, fragment ion; m/z=224.7 and m/z=298.8 for αSQMG C18:0, a precursor ion; m/z=567.1, fragment ion; m/z=224.7 and m/z=283.1 for αSQAP C18:0, and a precursor ion; m/z=555.1, fragment ion; m/z=224.7 and m/z=298.8 for a internal standard compound αSQMG C16:0. As a method of quantitative analysis, an internal standard analysis was adopted. More specifically, a standard curve was drawn based on the peak area ratio of the internal standard compound by analyzing the sample to which the test compound was added, to determine the quantity of the test compound. The pharmacokinetics of αSQAP C18:0 was tested by administering 1 mg/kg of αSQAP C18:0 to animals in the same manner as Example 3 except that human sophageal squamous cell carcinoma cells TE-8 were used as tumor of transplanted tumor model and that intravenous administration was adopted as substitute for interperitoneal administration.

[3] = tested on: human colon carcinoma cells (SW480); assay: Pharmacokinetics 1: concentration-time course in blood plasma, organs and tumor after intraperitoneal administration (LC/MS); conditions: 10 mg/kg intraperitoneal; for concentration in tumor tissues immediately after administration in comparison with other tissues / concentration in tumor tissues 24 hours after administration / residence in tumor tissues: SW480 tumor; for time of the highest concentration in blood plasma, liver, kidney, spleen and lung / time after administration at which concentration fell below the detection limit, blood plasma / time after administration at which concentration fell below the detection limit, kidney / time after administration at which concentration fell below the detection limit, liver / time after administration at which concentration fell below the detection limit, lung / time after administration at which concentration fell below the detection limit, spleen: SW480 tumor-bearing nude mice; for residence in tumor tissues: followed to 24 hours
Procedure: To eight-week-old male KSN nude mice (Japan SLC, Inc.), 2×10^6 of human colon carcinoma cells (SW480) were transplanted subcutaneously, two weeks later (body weight approximately 25 g, tumor volume approximately 200 mm^3) αSQMG C18:0 or αSQAP C18:0 was dissolved in physiological saline solution and administered intraperitoneally at a dose of 10 mg/kg (0.1 mL). After the administration, the mice were slaughtered chronologically with carbon dioxide; 30 minute, 1 hour, 2 hours, 4 hours, 12 hours, and 24 hours after the administration. Tissues of blood, liver, kidney, lung and spleen, and tumor tissue were then collected. At each time when tissues were collected, five animals were used.
Whole blood was collected from postcaval vein with use of an injection needle wetted with heparin sodium injection solution (10,000 unit/10 mL) to obtain blood plasma by 20 minutes of centrifugation at 6,000 g. To 90 μl of blood plasma, 5 μl of an internal standard compound (αSQMG C16:0), 5 μl of distilled water, and 4 μl of phosphoric acid were added, and denatured protein by adding 96 μl of acetonitrile. To 0.2 mL of the solution, 600 μl of 10 mM ammonium acetate solution was added, and stirred sufficiently to obtain supernatant by centrifugation at 16,000 g for 15 minutes. The supernatant was subjected to solid-phase extraction operation as described below. The solid-phase extraction was performed by washing with 1000 μl of 10 mM ammonium acetate aqueous solution and 200 μl of 10 mM ammonium acetate aqueous solution containing 10% acetonitrile, followed by elution of a test compound with 200 μl of 10 mM ammonium acetate aqueous solution containing 70% acetonitrile with use of Empore (trademark) disc cartridge (3M Company, product number 4115SD). The compound was used as a LC/MS analytical sample.
Each organ was extirpated after collection of blood and immediately frozen on dry ice. The frozen sample was subjected to frost shattering, and the weight was measured. Subsequently, ½-fold (weight ratio) internal standard compound (αSQMG C16:0) and distilled water were added, and 8-fold (weight ratio) extraction solution (2.5% NP-40, 2% phosphoric acid, 2 mM Eserine aqueous solution) was further added to the sample, followed by homogenization. The homogenized solution was subjected to protein denaturation with acetonitrile and solid phase extraction in the same manner as the above-mentioned treatment of blood plasma to obtain an analytical sample.
10 μl of the analytical sample was separated with a reverse phase HPLC system equipped with Capcell Pak MG column (particle diameter; 3 μm, column size; 2.1×50 mm, Shiseido Co., Ltd.). HPLC was performed with 68% acetonitrile and a single solvent of 10 mM ammonium acetate aqueous solution at a flow rate of 0.2 mL per minute. Mass spectrum was measured in a negative mode, and the peak area ratio of the internal standard compound was calculated by integration of the peak area from chromatogram corresponding to each ion by measuring a precursor ion; m/z=583.1, fragment ion; m/z=224.7 and m/z=298.8 for αSQMG C18:0, a precursor ion; m/z=567.1, fragment ion; m/z=224.7 and m/z=283.1 for αSQAP C18:0, and a precursor ion; m/z=555.1, fragment ion; m/z=224.7 and m/z=298.8 for a internal standard compound αSQMG C16:0. As a method of quantitative analysis, an internal standard analysis was adopted. More specifically, a standard curve was drawn based on the peak area ratio of the internal standard compound by analyzing the sample to which the test compound was added, to determine the quantity of the test compound.

Compound	tumor-resident amount ([1]; 9 hours after administration)	staining of tumor tissues (TRITC positive region) ([1]; tumor extracted 9 hours after administration, TE-8 tumor)	concentration in tumor tissue immediately after administration in comparison with other organs ([2]; TE-8 tumor)	time of the highest concentration in blood plasma, liver, spleen and lung ([2]; TE-8 tumor-bearing nude mice)	time after administration at which concentration fell below the detection limit, blood plasma ([2]; TE-8 tumor-bearing nude mice, blood plasma)	time after administration at which concentration fell below the detection limit, liver ([2]; TE-8 tumor-bearing nude mice, liver)	time after administration at which concentration fell below the detection limit, lung ([2]; TE-8 tumor-bearing nude mice, lung)	time after administration at which concentration fell below the detection limit, spleen ([2]; TE-8 tumor-bearing nude mice, spleen)	concentration in tumor tissue after 24 hours ([2]; TE-8 tumor, 24 hours)	course of concentration in tumor tissue after two hours ([2]; TE-8 tumor, after two hours)	residence in tumor tissues ([2]; TE-8 tumor, followed to 24 hours)	concentration in tumor tissues immediately after administration in comparison with other tissues [3]	time of the highest concentration in blood plasma, liver, kidney, spleen and lung [3]	time after administration at which concentration fell below the detection limit, blood plasma [3]	time after administration at which concentration fell below the detection limit, kidney [3]	time after administration at which concentration fell below the detection limit, liver [3]	time after administration at which concentration fell below the detection limit, lung [3]	time after administration at which concentration fell below the detection limit, spleen [3]	concentration in tumor tissues 24 hours after administration [3]	residence in tumor tissues [3]
3-O-[4-O-(biotinyl-β-alanyl)-6-sulfo-α-D-quinovopyranosyl]-1-0-stearoyl-glycerol [biotinated αSQMG C18:0]	high	strongly stained according to the dose																		
CCCCCCCCCCCCCCCCCC(=O)OCCCO[C@H]1O[C@H](CS(=O)(=O)[O-])[C@@H](O)[C@H](O)[C@H]1O.[Na+] [αSQAP C18:0]			low	immediately after administration	two	two	two	24 h	detectable	no decrease tendency	resides for a long period	low	immediately after the administration	four	four	12 h	four	four	detectable	resides for a long period
CCCCCCCCCCCCCCCCCC(=O)OCC(O)CO[C@H]1O[C@H](CS(=O)(=O)[O-])[C@@H](O)[C@H](O)[C@H]1O.[Na+] (some centres unmarked) [αSQMG C18:0]												low	immediately after the administration	four	four	four	four	12 h	detectable	resides for a long period
